Literature values as cited in patent US20100160306A1, “Acylated Piperidine Derivatives as Melanocortin-4 Receptor Agonists” (priority 2005, published 2010).

Details: injected intramuscularly or subcutaneously, males with psychogenic erectile dysfunction

In the case of “Ac-Nle-c[Asp-His-DPhe-Arg-Trp-Lys]-NH2 [MT-II]”, the response rate is listed as 75%.
